Assay results taken from ChEMBL document CHEMBL4825740, “Novel Histone Deacetylase Inhibitors for Treating HIV Infection” (ACS Med Chem Lett, 2021).

Assays:
Histone deacetylase 3 = Histone deacetylase 3 (Homo sapiens, UniProt O15379); test: Inhibition of human recombinant FLAG-tagged HDAC3 expressed in HEK293F cells incubated for 30 mins by Fluor De Lys assay; type: cell-based
Histone deacetylase 1 = Histone deacetylase 1 (Homo sapiens, UniProt Q13547); test: Inhibition of human recombinant FLAG-tagged HDAC1 expressed in HEK293F cells incubated for 30 mins by Fluor De Lys assay; type: cell-based
Histone deacetylase 2 = Histone deacetylase 2 (Homo sapiens, UniProt Q92769); test: Inhibition of human recombinant FLAG-tagged HDAC2 expressed in Sf9 cells incubated for 30 mins by Fluor De Lys assay
Chain of Histone deacetylase 2 (Q92769 whole entry): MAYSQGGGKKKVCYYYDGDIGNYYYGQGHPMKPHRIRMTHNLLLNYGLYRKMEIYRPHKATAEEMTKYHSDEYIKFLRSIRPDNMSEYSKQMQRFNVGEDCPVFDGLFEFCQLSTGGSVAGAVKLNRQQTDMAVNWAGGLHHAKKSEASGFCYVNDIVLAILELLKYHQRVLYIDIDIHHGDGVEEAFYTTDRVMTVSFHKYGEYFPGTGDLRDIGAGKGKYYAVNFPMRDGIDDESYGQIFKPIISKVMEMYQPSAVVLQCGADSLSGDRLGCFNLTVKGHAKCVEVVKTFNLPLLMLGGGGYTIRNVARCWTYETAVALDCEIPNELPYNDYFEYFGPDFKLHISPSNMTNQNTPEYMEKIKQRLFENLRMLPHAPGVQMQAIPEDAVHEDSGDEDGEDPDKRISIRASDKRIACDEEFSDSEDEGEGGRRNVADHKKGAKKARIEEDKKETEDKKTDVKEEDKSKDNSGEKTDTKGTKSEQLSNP

Chain of Histone deacetylase 1 (Q13547 whole entry): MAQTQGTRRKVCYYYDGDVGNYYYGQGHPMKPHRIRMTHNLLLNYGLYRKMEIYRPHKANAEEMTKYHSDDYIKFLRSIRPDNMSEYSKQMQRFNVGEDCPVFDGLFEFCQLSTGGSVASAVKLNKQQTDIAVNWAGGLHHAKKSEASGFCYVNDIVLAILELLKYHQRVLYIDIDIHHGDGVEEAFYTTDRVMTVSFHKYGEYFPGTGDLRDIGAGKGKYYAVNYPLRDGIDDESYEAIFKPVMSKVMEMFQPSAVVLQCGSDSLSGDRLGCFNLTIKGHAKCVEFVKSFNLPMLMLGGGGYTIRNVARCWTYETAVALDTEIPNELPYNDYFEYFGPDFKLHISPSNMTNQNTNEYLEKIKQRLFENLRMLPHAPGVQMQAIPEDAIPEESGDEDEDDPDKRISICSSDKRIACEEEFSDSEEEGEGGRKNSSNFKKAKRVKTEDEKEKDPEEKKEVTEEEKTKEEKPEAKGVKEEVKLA
Chain of Histone deacetylase 3 (O15379 whole entry): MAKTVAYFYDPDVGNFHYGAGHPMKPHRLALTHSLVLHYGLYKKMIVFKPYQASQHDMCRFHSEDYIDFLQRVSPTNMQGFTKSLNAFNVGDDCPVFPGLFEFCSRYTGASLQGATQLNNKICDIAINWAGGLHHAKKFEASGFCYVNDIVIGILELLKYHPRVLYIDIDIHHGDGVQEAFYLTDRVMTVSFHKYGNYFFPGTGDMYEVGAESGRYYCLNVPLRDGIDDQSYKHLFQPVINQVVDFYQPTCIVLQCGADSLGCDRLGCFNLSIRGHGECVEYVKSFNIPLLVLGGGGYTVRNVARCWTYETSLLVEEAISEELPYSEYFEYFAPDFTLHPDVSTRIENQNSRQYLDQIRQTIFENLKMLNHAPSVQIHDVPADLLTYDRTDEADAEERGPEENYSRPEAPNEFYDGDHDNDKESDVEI

IC50 (Histone deacetylase 3) [nM]	IC50 (Histone deacetylase 1) [nM]	IC50 (Histone deacetylase 2) [nM]	SMILES
< 1.5	< 1.5		CCC(=O)CCCCC[C@H](NC(=O)[C@H]1CC12CCN(CC)CC2)c1ncc(-c2cc3cccnc3cc2OC)o1
	0.32	2	CCC(=O)CCCCC[C@H](NC(=O)[C@H]1CC12CCN(C)CC2)c1ncc(-c2cc3ccc(N4CCCC4)nc3cc2OC)[nH]1
